Measurements as given in publication PMC2248166, “Quantitative peptide binding motifs for 19 human and mouse MHC class I molecules derived using positional scanning combinatorial peptide libraries” (Immunome Research, 2008).

Experiments:
HLA A*3001 = HLA A*3001 (Homo sapiens, UniProt P04439, D140H/D185E/E176W/F33S/G80R/H175R/K168Q/R138E/R41S); assay: biochemical; assay type: binding
HLA A*3201 = HLA A*3201 (Homo sapiens, UniProt P04439, A270S/D101S/D185E/E176V/E277Q/F133L/G103R/G107R/G231S/H175R/I121M/I218V/I322F/K168Q/L105A/L300P/L318F/M331R/P208A/P217A/Q94H/R106L/R138Q/S129P/T104I/T323A/T345S/V100E/V321M/V358M); assay: biochemical; assay type: binding
HLA A*6802 = HLA A*6802 (Homo sapiens, UniProt P04439, A269V/D140Y/D185E/E176V/E277Q/E87N/F33Y/G231S/I121R/I166T/I218V/L180W/L300P/L318F/N151K/P208A/P217A/Q86R/R138H/R169H/S129P/T345S/V36M); assay type: binding
HLA B*0702 = HLA B*0702 (Homo sapiens, UniProt P01889); assay type: binding; details: positional scanning combinatorial 9-mer library; normalized to 1.0 for the best residue at each position
HLA B*0801 = HLA B*0801 (Homo sapiens, UniProt P01889, A93T/A95T/D138N/E176V/E187T/K202T/Q94N/R180D/S35A/V36M/Y33D/Y91F); assay: biochemical; assay type: binding
HLA B*1501 = HLA B*1501 (Homo sapiens, UniProt P01889, A329T/A93T/A95T/C349S/D201E/D98Y/E187L/E204Q/E69M/E70A/K202T/N87E/Q94N/R155S/R180W/S121R/S35A/S48A/V306I/V36M/Y140S/Y91S); assay: biochemical; assay type: binding
HLA B*1503 = HLA B*1503 (Homo sapiens, UniProt P01889, A329T/A93T/A95T/C349S/D201E/D98Y/E187L/E204Q/K202T/N87E/Q94N/R155S/R180L/S121R/S35A/V306I/V36M/Y140S/Y91S); assay: biochemical; assay type: binding
HLA B*2705 = HLA B*2705 (Homo sapiens, UniProt P01889, D138H/D201E/E176V/E204Q/G107R/H137Y/K202T/N104T/N87E/Q56L/Q94K/R106L/R155S/R180L/S101D/S121N/S48T/Y140D/Y33H/Y91C); assay type: binding; details: positional scanning combinatorial 9-mer library; normalized to 1.0 for the best residue at each position
HLA B*3501 = HLA B*3501 (Homo sapiens, UniProt P01889, A329T/A93T/A95T/C349S/D201E/D98Y/E176V/E187L/E204Q/E69T/I218V/K202T/L119I/Q94N/R155S/R180L/S121R/S35A/S48A/T118I/V127L/V306I/V36M/Y140S/Y91F); assay type: binding
HLA B*5101 = HLA B*5101 (Homo sapiens, UniProt P01889, A329T/A93T/A95T/C349S/D138N/D201E/D98Y/E187L/E204Q/E69T/G107R/I218V/K202T/L105A/L119W/N104I/Q94N/R106L/R155S/R180L/S101N/S121T/S35A/S48A/V306I/V36M/Y195H/Y91F); assay type: binding
HLA B*5301 = HLA B*5301 (Homo sapiens, UniProt P01889, A329T/A93T/A95T/C349S/D201E/D98Y/E176V/E187L/E204Q/E69T/G107R/I218V/K202T/L105A/L119I/N104I/Q94N/R106L/R155S/R180L/S101N/S121R/S35A/S48A/T118I/V127L/V306I/V36M/Y140S/Y91F); assay type: binding
HLA B*5401 = HLA B*5401 (Homo sapiens, UniProt P01889, A329T/C349S/D138N/D201E/E176V/E187T/E204Q/E69G/I76V/K202T/L119W/R155S/R180L/S121T/S35A/S48A/V127L/V306I/V36M/Y140L); assay type: binding
HLA B*5801 = HLA B*5801 (Homo sapiens, UniProt P01889, A329T/C349S/D201E/D98Y/E176V/E187L/E204Q/E69T/G107R/I218V/I90N/K202T/L105A/L119I/N104I/N87E/Q89R/Q94S/R106L/R155S/R180L/R86G/S101N/S121R/S35A/S48A/T118I/V127L/V306I/V36M/Y140S/Y91M); assay type: binding
HLA B*5802 = HLA B*5802 (Homo sapiens, UniProt P01889, A329T/C349S/D201E/D98Y/E176V/E187L/E204Q/E69T/G107R/I218V/I90N/K202T/L105A/N104I/N87E/Q89R/Q94S/R106L/R155S/R180L/R86G/S101N/S121W/S35A/S48A/V127L/V306I/V36M/Y140S/Y91M); assay type: binding
H-2 D^b = H-2 D^b (Mus musculus, UniProt P01899); assay type: binding
Sequence of H-2 D^b (P01887 21-119): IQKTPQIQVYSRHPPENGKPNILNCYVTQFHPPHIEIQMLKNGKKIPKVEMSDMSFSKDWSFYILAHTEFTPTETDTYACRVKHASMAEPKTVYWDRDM
Sequence of H-2 D^b (P01899 25-362): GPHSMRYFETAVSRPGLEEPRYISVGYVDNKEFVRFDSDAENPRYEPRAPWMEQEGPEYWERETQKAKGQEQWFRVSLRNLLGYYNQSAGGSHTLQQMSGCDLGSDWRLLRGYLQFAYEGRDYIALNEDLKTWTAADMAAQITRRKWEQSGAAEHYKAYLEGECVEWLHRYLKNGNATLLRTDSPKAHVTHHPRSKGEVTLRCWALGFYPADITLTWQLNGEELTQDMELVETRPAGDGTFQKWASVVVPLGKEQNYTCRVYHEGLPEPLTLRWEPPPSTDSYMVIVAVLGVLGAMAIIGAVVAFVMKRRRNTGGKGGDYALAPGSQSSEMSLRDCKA

H-2 D^d = H-2 D^d (Mus musculus, UniProt P01900); assay type: binding
Sequence of H-2 D^d (P01900 whole entry, looked up): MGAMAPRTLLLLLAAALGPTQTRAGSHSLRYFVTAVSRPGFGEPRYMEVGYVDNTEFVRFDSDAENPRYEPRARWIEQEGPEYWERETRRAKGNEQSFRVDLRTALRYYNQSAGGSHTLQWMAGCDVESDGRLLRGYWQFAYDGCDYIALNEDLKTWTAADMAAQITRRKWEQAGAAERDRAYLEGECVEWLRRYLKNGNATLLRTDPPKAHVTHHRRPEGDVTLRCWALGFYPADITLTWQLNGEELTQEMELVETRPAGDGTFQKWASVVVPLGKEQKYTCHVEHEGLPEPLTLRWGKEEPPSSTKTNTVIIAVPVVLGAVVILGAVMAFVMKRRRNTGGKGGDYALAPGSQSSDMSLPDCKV

H-2 K^k = H-2 K^k (Mus musculus, UniProt P04223); assay type: binding
Sequence of H-2 K^k (P01887 21-119): as the sequence (P01887 21-119) above
Sequence of H-2 K^k (P04223 22-369): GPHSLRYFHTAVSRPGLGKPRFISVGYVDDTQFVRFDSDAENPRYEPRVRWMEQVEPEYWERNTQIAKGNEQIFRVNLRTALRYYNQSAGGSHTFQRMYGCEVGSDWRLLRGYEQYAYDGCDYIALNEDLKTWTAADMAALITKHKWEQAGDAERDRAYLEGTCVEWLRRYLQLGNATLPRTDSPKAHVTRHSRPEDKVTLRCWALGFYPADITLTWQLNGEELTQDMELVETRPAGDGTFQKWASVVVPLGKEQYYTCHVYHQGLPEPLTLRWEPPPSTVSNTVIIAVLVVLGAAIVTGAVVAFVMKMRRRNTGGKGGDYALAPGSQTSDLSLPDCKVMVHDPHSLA

HLA A*0201 = HLA A*0201 (Homo sapiens, UniProt P04439, D140Y/D185E/D98H/E176V/E277Q/G131W/G231S/I119V/I121R/I166T/I218V/L300P/L318F/N151K/N90K/P208A/P217A/Q86G/Q94H/R138H/R169H/T345S); details: positional scanning combinatorial 9-mer library; normalized to 1.0 for the best residue at each position

Sequence	Normalized average relative binding affinity (ARB), HLA A*3001 (HLA A*3001)	Normalized average relative binding affinity (ARB), HLA A*3201 (HLA A*3201)	Normalized average relative binding affinity (ARB), HLA A*6802 (HLA A*6802)	Normalized average relative binding affinity (ARB), HLA B*0702 (HLA B*0702)	Normalized average relative binding affinity (ARB), HLA B*0801 (HLA B*0801)	Normalized average relative binding affinity (ARB), HLA B*1501 (HLA B*1501)	Normalized average relative binding affinity (ARB), HLA B*1503 (HLA B*1503)	Normalized average relative binding affinity (ARB), HLA B*2705 (HLA B*2705)	Normalized average relative binding affinity (ARB), HLA B*3501 (HLA B*3501)	Normalized average relative binding affinity (ARB), HLA B*5101 (HLA B*5101)	Normalized average relative binding affinity (ARB), HLA B*5301 (HLA B*5301)	Normalized average relative binding affinity (ARB), HLA B*5401 (HLA B*5401)	Normalized average relative binding affinity (ARB), HLA B*5801 (HLA B*5801)	Normalized average relative binding affinity (ARB), HLA B*5802 (HLA B*5802)	Normalized average relative binding affinity (ARB), H-2 Db (H-2 D^b)	Normalized average relative binding affinity (ARB), H-2 Dd (H-2 D^d)	Normalized average relative binding affinity (ARB), H-2 Kk (H-2 K^k)	Normalized average relative binding affinity (ARB), HLA A*0201 (HLA A*0201)
XTXXXXXXX [3064.0037]	0.77	1.0	0.63	0.014	0.038	0.29	0.026	0.0033	0.042	0.042	0.022	0.028	0.71	0.79	0.22	0.019	0.0085	0.038
XMXXXXXXX [3064.0031]	0.70	0.63	0.055	0.0028	0.70	0.96	0.57	0.010	0.035	0.039	0.040	0.0072	0.0033	0.17	0.73	0.018	0.012	0.19
XXKXXXXXX [3064.0049]	0.20	0.092	0.11	0.20	0.96	0.53	0.095	0.21	0.096	0.20	0.019	0.015	0.020	0.081	0.028	0.0033	0.39	0.016
XXSXXXXXX [3064.0056]	0.040	0.29	0.50	0.093	0.057	0.41	0.41	0.27	0.11	0.16	0.15	0.014	0.33	0.066	0.084	0.0061	0.43	0.17
